In article PMC7190722, “Brain distribution of geissoschizine methyl ether in rats using mass spectrometry imaging analysis” (Scientific Reports, 2020):
Several values for one entry are separate records, joined by “and”; a condition that tells them apart may be missing. Identical values can stand only once.

Assays:
normal rat brain slices = system: normal rat brain slices; parameters: method as in PMID 25456433, PMID 28377723; conditions: [^3H]GM directly exposed to normal rat brain slices; cited from earlier work
[1] = Brain distribution by DESI-MSI analysis after intravenous GM injection; format: in vivo, rat; conditions: for concentration at 0.25 h: rat, intravenous, 5 mg/kg
Protocol: GM (5 mg/kg) or vehicle (70% DMSO; 0.6 mL/kg) was injected into the tail vein of rats fasted for approximately 16 h. […] Blood samples were centrifuged at 1,700 × g and 4 °C for 15 min to obtain the plasma. The brain of each animal was immediately removed and weighed after blood collection and frozen with liquid nitrogen. The frozen brains were used for making serial sagittal thin sliced sections (thickness 25 μm, coordinate: approximately 3.4 mm lateral from the bregma) using a […][…] cryostat (Leica Microsystems, […], Germany). Some of the serial sections mounted on conventional glass slides were used for H&E staining to confirm the location of the brain region in the slice. In MALDI-MSI analysis, some sections were mounted on indium tin oxide-coated slides ([…]., Osaka, Japan) based on previous reports[35],[36] to obtain higher sensitivity. In […] analysis, some sections were mounted on conventional glass slides. These tissue sections mounted on the slides were dried in a desiccator at room temperature for 10 min for MALDI-MSI analysis or 1 h for […] analysis. In the […] analysis, the MS/MS analysis was further performed to identify the signals of GM or its hydroxylated metabolite. The MS and MS/MS analyses for […] were performed using a Xevo G2-XS Q-Tof system (Waters, Milford, MA, USA) with an Omni Spray Ion Source 2-D (Prosolia, Indianapolis, IN, USA). In both analyses, methanol/water (98:2)solution was flowed into a capillary at a 2 μL/min flow rate. The nebulizing gas pressure was set to 0.4 MPa, the capillary voltage to 5 kV, the source temperature to 100 °C, the sampling cone to 30 V, and the scan time to 0.986 sec. In the MS analysis, the collision energy was set to 4 eV, and mass spectra were acquired in target enhancement mode, which was set to m/z 367.2. In the MS/MS analysis, the collision energy was set to 20 eV, and mass spectra were acquired in target enhancement mode, which was set to m/z 144.2. Mass resolution and spatial resolution were >20,000 and 200 μm in the MS and MS/MS analyses. The protonated ions of GM ([M + H]^+: m/z 367.2) and HM ([M + H]^+: m/z 383.2) in MS and the specific fragment ions of GM (m/z 144.2) and HM (m/z 160.2) in MS/MS were detected in positive ion mode. The intensities of GM and HM detected in the DESI-MS analysis were visualized using high-definition imaging (HDI) software (Waters, Milford, MA, USA). Normal intact brains were homogenized without adding a solvent using a T-10 basic Ultra-Turrax homogenizer (IKA, Staufen, Germany) to prepare a tissue-based calibration curve for quantifying GM. For brain homogenates, various concentrations of standard GM solution (final concentration: 6.25, 12.5, and 25.0 μg/g brain) or vehicle (methanol) as a control were added and rapidly frozen. Frozen sections (thickness 25 μm) of the homogenates spiked with standard GM were made using a […][…] cryostat (Leica Microsystems). Regional intensities of GM (m/z 367.2) and a standard endogenous molecule (m/z 366.95) in brain tissue slices and homogenate slices were evaluated by the region of interest analysis using HDI software (Waters). The GM signal intensity was expressed as the average of the relative intensity ratio to the standard endogenous molecule per […] contained in the region of interest. The regional brain concentration of GM was calculated using the tissue-based calibration curve (Fig. 3D-2).

[2] = parameters: method as in PMID 21442303; conditions: cultured cells; cited from earlier work
[3] = Plasma concentrations of GM and HM-1/2 by LC-MS/MS after intravenous GM injection; format: in vivo, rat
Protocol: GM (5 mg/kg) or vehicle (70% DMSO; 0.6 mL/kg) was injected into the tail vein of rats fasted for approximately 16 h. […] Blood samples were centrifuged at 1,700 × g and 4 °C for 15 min to obtain the plasma. The brain of each animal was immediately removed and weighed after blood collection and frozen with liquid nitrogen. On the day of analysis, frozen plasma from GM-treated rats was thawed at room temperature, and 25 µL of the plasma was mixed with equal volumes of methanol and an IS vincamine (1 ng/mL) and 150 μL of ethyl acetate. To prepare the calibration curve, blank plasma and various concentrations of working solution (final plasma concentration: 0.08–2 µg/mL) were used instead of methanol and GM-treated plasma. The mixture was centrifuged at 7,000 × g and 4 °C for 5 min. The supernatant was dried under a stream of nitrogen gas. The dried residue was dissolved in 60 μL of the initial mobile phase of LC, and then, a 5-μL aliquot was injected into the LC-MS/MS system composed of an Agilent 1290 LC (Agilent Technologies, Santa Clara, CA, USA) and a TripleQuad6500 MS/MS (SCIEX, Framingham, MA, USA) for measuring GM and its hydroxylated forms. The analytical conditions for LC-MS/MS were set according to previously reported methods with minor modifications[10],[15]. The protonated ions ([M + H]^+) of GM (m/z 367.0), HM-1/2 isomers (m/z 383.3), and vincamine (m/z 355.3) in Q1 (the first MS) or their specific fragment ions (GM: m/z 144.1, HM-1/2 isomers: m/z 160.2, vincamine: m/z 337.1) in Q3 (the second MS) were selected and detected by SRM using positive ion mode. Although a qualifier ion was not monitored in their analysis, the specificities of GM, HM-1/2 and vincamine in rat plasma were already confirmed by previous studies[10],[14]. The calibration curve for quantification of plasma GM concentrations was prepared using Analyst software (version 1.6.2, AB SCIEX). The plasma concentrations of HM-1/2 were expressed as relative peak area ratios of vincamine (IS) because there are currently no standard products for measuring these compounds.

[4] = parameters: method as in PMID 23813572, PMID 30741064; conditions: plasma and brain, after oral YKS administration to rats; cited from earlier work
[5] = Brain distribution by MALDI-MSI analysis after intravenous GM injection; format: in vivo, rat; conditions: 0.25 h after 5 mg/kg GM i.v., sagittal sections
Protocol: GM (5 mg/kg) or vehicle (70% DMSO; 0.6 mL/kg) was injected into the tail vein of rats fasted for approximately 16 h. […] Blood samples were centrifuged at 1,700 × g and 4 °C for 15 min to obtain the plasma. The brain of each animal was immediately removed and weighed after blood collection and frozen with liquid nitrogen.
The frozen brains were used for making serial sagittal thin sliced sections (thickness 25 μm, coordinate: approximately 3.4 mm lateral from the bregma) using a Leica CM3050S cryostat (Leica Microsystems, Wetzlar, Germany). Some of the serial sections mounted on conventional glass slides were used for H&E staining to confirm the location of the brain region in the slice. […]
The MALDI-MSI analysis was performed on brain slice specimens sprayed with a matrix solution (40 mg/mL 2,5-dihydroxybenzoic acid) dissolved in 50% methanol using a TM-sprayer (HTX Technologies, Chapel Hill, NC, USA). […] The targeted protonated molecule GM ([M + H]^+: m/z 367.2) was detected in positive ion mode under a laser power setting of 70%, 500 laser shots, and the continuous accumulation of selected ions mode set to ON at m/z 360 ± 50. […] GM intensity detected by the MALDI-MS analysis was visualized using FlexImaging software (Bruker Daltonics).

[6] = Amygdala, 0.25 h, individual animals
[7] = Cerebellum, 0.25 h, individual animals
[8] = Fourth ventricle, 0.25 h, individual animals
[9] = Frontal lobe, 0.25 h, individual animals
[10] = Hippocampus, 0.25 h, individual animals
[11] = Lateral ventricle, 0.25 h, individual animals
[12] = Occipital lobe, 0.25 h, individual animals
[13] = Striatum, 0.25 h, individual animals
[14] = Thalamus, 0.25 h, individual animals

## CC=C1CN2CCc3c([nH]c4ccccc34)C2CC1C(=COC)C(=O)OC (stereo not shown) [GM, Geissoschizine methyl ether]
Normal rat brain slices
  binding to brain slices: specifically bound to various regions appearing on the surface of brain slices
[1]; 0.25 h after 5 mg/kg GM i.v., sagittal sections
  GM ion signal in brain, DESI-MSI image: a diffuse GM ion signal was observed throughout the brain parenchyma
[1]; [6]
  Calculated GM concentration: 1.0 µg/g and 2.2 µg/g and 1.2 µg/g
  Ion intensity of GM per pixel in ROI: 2.4 ×10^4 and 3.7 ×10^4 and 9.7 ×10^4
  Ratio of GM/endogenous standard molecule: 0.8 and 1.8 and 1.0
[1]; [7]
  Calculated GM concentration: 0.8 µg/g and 2.0 µg/g and 1.1 µg/g
  Ion intensity of GM per pixel in ROI: 4.2 ×10^4 and 2.4 ×10^4 and 8.7 ×10^4
  Ratio of GM/endogenous standard molecule: 0.7 and 1.7 and 0.9
[1]; DESI-MSI, 1 and 4 h after 5 mg/kg GM i.v.
  GM intensity in the parenchyma: almost disappeared
[1]; DESI-MSI, 0.25 h, also detected at 1 and 4 h
  intracerebroventricular GM intensity: higher than the intensity in other parenchymal areas
[1]; [8]
  Calculated GM concentration: 2.3 µg/g and 2.0 µg/g
  Ion intensity of GM per pixel in ROI: 4.0 ×10^4 and 3.9 ×10^4 and 26.5 ×10^4
  Ratio of GM/endogenous standard molecule: 1.0 and 1.9 and 1.7
[1]; [9]
  Calculated GM concentration: 1.0 µg/g and 2.6 µg/g and 1.2 µg/g
  Ion intensity of GM per pixel in ROI: 2.9 ×10^4 and 5.4 ×10^4 and 9.1 ×10^4
  Ratio of GM/endogenous standard molecule: 0.8 and 2.2 and 1.0
[1]; [10]
  Calculated GM concentration: 2.3 µg/g and 1.1 µg/g and 0.8 µg/g
  Ion intensity of GM per pixel in ROI: 4.7 ×10^4 and 10 ×10^4 and 2.0 ×10^4
  Ratio of GM/endogenous standard molecule: 1.9 and 0.9 and 0.7
[1]; [11]
  Calculated GM concentration: 1.4 µg/g and 4.5 µg/g and 2.9 µg/g
  Ion intensity of GM per pixel in ROI: 3.0 ×10^4 and 8.3 ×10^4 and 21.2 ×10^4
  Ratio of GM/endogenous standard molecule: 1.2 and 3.8 and 2.4
[1]; [12]
  Calculated GM concentration: 1.1 µg/g and 2.7 µg/g and 1.3 µg/g
  Ion intensity of GM per pixel in ROI: 2.9 ×10^4 and 4.8 ×10^4 and 10.5 ×10^4
  Ratio of GM/endogenous standard molecule: 0.9 and 2.3 and 1.1
[1]; [13]
  Calculated GM concentration: 0.8 µg/g and 2.6 µg/g and 1.1 µg/g
  Ion intensity of GM per pixel in ROI: 1.9 ×10^4 and 3.9 ×10^4 and 7.2 ×10^4
  Ratio of GM/endogenous standard molecule: 0.7 and 2.2 and 0.9
[1]; [14]
  Calculated GM concentration: 0.7 µg/g and 2.4 µg/g and 1.1 µg/g
  Ion intensity of GM per pixel in ROI: 1.7 ×10^4 and 4.5 ×10^4 and 8.8 ×10^4
  Ratio of GM/endogenous standard molecule: 0.6 and 2.0 and 0.9
[1]; brain (fourth ventricle), Fourth ventricle, 0.25 h, individual animals, read-out: Calculated GM concentration
  concentration at 0.25 h: 1200 ng/g
[1]; 0.25 h after 5 mg/kg GM i.v., cerebral cortex, hippocampus, striatum, amygdala, thalamus, cerebellum, lateral ventricle, read-out: regional brain GM concentration range
  concentration at 0.25 h: 1300 to 2900 ng/g
[2]
  BBB permeability: comparatively high
[3]; 0.25-4 h after 5 mg/kg GM i.v., rat
  time course of plasma GM concentration: rapidly decreased in a time-dependent manner over 4 h
[3]; 0.25 h after 5 mg/kg GM i.v. vs maximum concentration 1 h after oral 1 g/kg YKS
  plasma concentration relative to maximum concentration after oral YKS: approximately 500 times
[3]; one-compartment analysis, 5 mg/kg GM i.v., rat
  distribution volume: 4.4 L/kg
[3]; plasma, iv, 0.25 h postinjection, 5 mg/kg GM i.v., rat
  concentration at 0.25 h: 1.07 µg/mL
[3]; plasma, iv, one-compartment analysis, 5 mg/kg GM i.v., rat, read-out: apparent elimination half-life (converted)
  half-life: 1.8 h
[3]; plasma, iv, one-compartment analysis, 5 mg/kg GM i.v., rat, read-out: elimination rate constant (converted)
  k el: 0.000111 s⁻¹
[3]; plasma, iv, one-compartment analysis, 5 mg/kg GM i.v., rat, read-out: total clearance (converted)
  clearance: 1.7 L/h/kg
[4]
  tmax: 0.5 h
[5]
  GM ion signal in brain, MALDI-MSI image: a diffuse GM ion signal was observed throughout the brain parenchyma
